Results on 2 molecules are retold here after ChEMBL document CHEMBL1139487, “Discovery of corticotropin releasing factor 2 receptor selective sauvagine analogues for treatment of skeletal muscle atrophy” (J Med Chem, 2005).

In assay [1] the target is T1, Corticotropin-releasing factor receptor 1 (Mus musculus, UniProt P35347).
T1 sequence (P35347 whole entry): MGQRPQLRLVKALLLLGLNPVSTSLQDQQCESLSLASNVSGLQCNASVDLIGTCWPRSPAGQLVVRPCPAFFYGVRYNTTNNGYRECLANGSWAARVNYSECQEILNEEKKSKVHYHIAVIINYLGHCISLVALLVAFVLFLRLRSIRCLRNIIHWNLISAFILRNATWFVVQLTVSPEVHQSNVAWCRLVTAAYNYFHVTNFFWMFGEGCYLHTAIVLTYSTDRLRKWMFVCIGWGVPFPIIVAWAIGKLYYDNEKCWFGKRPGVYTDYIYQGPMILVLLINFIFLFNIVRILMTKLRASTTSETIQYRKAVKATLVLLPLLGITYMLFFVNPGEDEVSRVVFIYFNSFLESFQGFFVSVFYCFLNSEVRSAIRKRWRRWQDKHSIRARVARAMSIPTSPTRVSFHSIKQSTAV
The assay can be described thus: In vitro effective concentration for mouse corticotropin releasing factor 1 receptor.

Assay [2] concerns Mus musculus. The assay can be described thus: In vivo percentage inhibition against casting induced tibialis anterior mass loss in mouse at a dosage of 100 ug/kg/day. It counts as functional.
Assay [3] is filed under the species Mus musculus. In words: Selectivity ratio of EC50s for mouse corticotropin releasing factor receptors 1 and 2.
Assay [4] addresses Corticotropin-releasing factor receptor 2 (Mus musculus, UniProt Q60748). In words: In vitro effective concentration for mouse corticotropin releasing factor 2 receptor.
Assay [5] concerns the target T2, Corticotropin-releasing factor receptor 1 (Mus musculus) (UniProt P35347).
T2 sequence (whole entry): T1 sequence (P35347 whole entry)
The assay can be described thus: In vitro agonistic activity against mouse corticotropin releasing factor 1 receptor. Type of assay: functional.

Assay [6] addresses Corticotropin-releasing factor receptor 2 (Mus musculus) (UniProt Q60748). In words: In vitro agonistic activity against mouse corticotropin releasing factor 2 receptor. It counts as functional.
For assay [7], the system named is Mus musculus. The assay can be described thus: In vivo percentage inhibition against casting induced tibialis anterior mass loss in mouse at a dosage of 300 ug/kg/day. It counts as functional. To be noted: read-out: Inhibition.
Assay [8] relates to Mus musculus. In words: In vivo percentage inhibition against casting induced tibialis anterior mass loss in mouse at a dosage of 30 ug/kg/day. It counts as functional.

The structures appear in SMILES notation.

Corticotropin-releasing factor receptor 2 (Mus musculus), sequence (Q60748 whole entry): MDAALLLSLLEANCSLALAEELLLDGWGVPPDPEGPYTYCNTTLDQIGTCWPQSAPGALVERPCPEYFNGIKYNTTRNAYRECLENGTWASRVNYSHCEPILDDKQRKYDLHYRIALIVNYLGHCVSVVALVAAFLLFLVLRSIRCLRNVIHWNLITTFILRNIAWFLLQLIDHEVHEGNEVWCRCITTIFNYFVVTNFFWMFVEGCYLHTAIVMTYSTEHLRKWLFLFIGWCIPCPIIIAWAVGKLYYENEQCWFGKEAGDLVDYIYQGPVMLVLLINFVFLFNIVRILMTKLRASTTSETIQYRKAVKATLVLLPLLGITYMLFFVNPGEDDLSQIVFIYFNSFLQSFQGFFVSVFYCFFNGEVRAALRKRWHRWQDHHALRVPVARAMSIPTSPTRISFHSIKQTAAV
Corticotropin-releasing factor receptor 2, sequence (Q60748 whole entry): as above

As a reminder, the EC50 is the concentration at which the effect is half-maximal. A high value points to lower potency in that assay. As a reminder, the Emax is the maximal effect, on the per cent scale that the assay sets. As for `CC[C@H](C)[C@H](NC(=O)[C@@H](NC(=O)[C@H](CC(=O)O)NC(=O)[C@H](CC(C)C)NC(=O)[C@H](CC(C)C)NC(=O)[C@H](CC(C)C)NC(=O)[C@H](CCCN=C(N)N)NC(=O)[C@H](CC(N)=O)NC(=O)[C@H](CC(N)=O)NC(=O)[C@H](C)NC(=O)[C@H](C)NC(=O)[C@H](CCC(N)=O)NC(=O)[C@H](CCC(N)=O)NC(=O)[C@H](CCCCN)NC(=O)[C@H](CCC(=O)O)NC(=O)[C@H](CCCCN)NC(=O)[C@H](CCC(=O)O)NC(=O)[C@H](CCC(N)=O)NC(=O)[C@H](CCCCN)NC(=O)[C@H](CCC(=O)O)NC(=O)[C@@H](NC(=O)[C@H](CCC(=O)O)NC(=O)[C@@H](NC(=O)[C@H](CCSC)NC(=O)[C@H](CCCCN)NC(=O)[C@H](CCCN=C(N)N)NC(=O)[C@H](CC(C)C)NC(=O)[C@H](CC(C)C)NC(=O)[C@H](Cc1ccc(O)cc1)NC(=O)[C@@H](NC(=O)[C@@H]1CCCN1C(=O)[C@H](CC(C)C)NC(=O)[C@H](CC(=O)O)NC(=O)[C@@H](NC(=O)[C@H](CO)NC(=O)[C@@H](NC(=O)[C@@H]1CCCN1C(=O)[C@@H]1CCCN1C(=O)CNC(=O)[C@@H]1CCC(=O)N1)[C@@H](C)CC)[C@@H](C)CC)[C@@H](C)O)[C@@H](C)CC)[C@@H](C)CC)[C@@H](C)O)C(=O)O`, the results for the concentration giving a half-maximal response (EC50) in assay [1] and in assay [4] were over 1000 nM and 18.2 nM, respectively. This molecule registered an inhibition in vivo at 0.1 mg/kg/day with Mus musculus [2] of 25%. For the same molecule, the Selectivity in the assay listed under Mus musculus [3] is over 55. Besides, the results for the Emax in assay [5] and in assay [6] were 48% and 82%, respectively. Moreover, the inhibition in vivo at 0.3 mg/kg/day in the assay with Mus musculus [7] amounted to 59%. In the assay with Mus musculus [8], this molecule showed an inhibition in vivo at 0.03 mg/kg/day of 3%.
For the molecule `CC[C@H](C)[C@H](NC(=O)[C@@H](NC(=O)[C@H](CC(=O)O)NC(=O)[C@H](CC(C)C)NC(=O)[C@H](CC(C)C)NC(=O)[C@H](CC(C)C)NC(=O)[C@H](CCCN=C(N)N)NC(=O)[C@H](CC(N)=O)NC(=O)[C@H](CC(N)=O)NC(=O)[C@H](C)NC(=O)[C@H](C)NC(=O)[C@H](CCC(N)=O)NC(=O)[C@H](CCC(N)=O)NC(=O)[C@H](CCCCN)NC(=O)[C@H](CCC(=O)O)NC(=O)[C@H](CCCCN)NC(=O)[C@H](CCC(=O)O)NC(=O)[C@H](CCC(N)=O)NC(=O)[C@H](CCCCN)NC(=O)[C@H](CCC(=O)O)NC(=O)[C@@H](NC(=O)[C@H](CCC(=O)O)NC(=O)[C@@H](NC(=O)[C@H](CCSC)NC(=O)[C@H](CCCCN)NC(=O)[C@H](CCCN=C(N)N)NC(=O)[C@H](CC(C)C)NC(=O)[C@H](CC(C)C)NC(=O)[C@H](Cc1ccc(O)cc1)NC(=O)[C@@H](NC(=O)[C@@H]1CCCN1C(=O)[C@H](CC(C)C)NC(=O)[C@H](CC(=O)O)NC(=O)[C@@H](NC(=O)[C@H](CO)NC(=O)[C@@H](NC(=O)[C@@H]1CCCN1C(=O)[C@@H]1CCCN1C(=O)CNC(=O)[C@@H]1CCC(=O)N1)[C@@H](C)CC)[C@@H](C)CC)[C@@H](C)CC)[C@@H](C)CC)[C@@H](C)CC)[C@@H](C)O)C(=O)O`, the inhibition in vivo at 0.1 mg/kg/day with Mus musculus [2] came out at 38%. In addition, in the assay filed under Mus musculus [3], the Selectivity was over 45. Besides, the values for the maximal response (Emax) in assay [5] and in assay [6] were 8% and 100%, respectively. Moreover, the inhibition in vivo at 0.3 mg/kg/day with Mus musculus [7] is 58%. Moreover, in the assay on Mus musculus [8], the inhibition in vivo at 0.03 mg/kg/day is 24%.
